# Earlier results in publication PMC6253886, “Prodrugs of Thyrotropin-Releasing Hormone and Related Peptides as Central Nervous System Agents” (Molecules, 2009).
# pKi: −log10 of the molar value. Where two headings read alike, the source gives them in different places. Marks after values point to notes of the source that are not given here. [ ]: non-standard residue; d: D form. The star is where a group is joined. O(cholesteryl) = CC(C)CCC[C@@H](C)[C@H]1CC[C@H]2[C@@H]3CC=C4C[C@@H](O*)CC[C@]4(C)[C@H]3CC[C@]12C; pGlu = O=C1CC[C@@H](C(=O)O)N1; Dht = not defined here
# How the values were obtained:
# [1] = test system: mice; conditions: for % Decrease in Sleeping Time / Sleeping time (min): pentobarbital 60 mg/kg i.p. 10 min later; for % Decrease in Sleeping Time: percent of vehicle sleeping time (54.9 ±3.8 min); for Analeptic Effect: % Decrease in Sleeping Time / Sleeping time (min): 10 µmol/kg i.v.; for Analeptic Effect: % Decrease in Sleeping Time: percent decrease vs saline vehicle counted as 100%; for Sleeping time (min): saline vehicle 80±2 min
# Description: Table 1 Barbiturate-induced sleeping times in mice after the administration of [Leu^2]TRH and its produgs having various spacers (S). Sleeping time decrease is expressed as percent of sleeping time for vehicle administration only (54.9 ±3.8 min). […] Values are expressed as percent decrease compared to those of saline vehicle that was counted as 100%. *Statistically significant difference from saline control (ANOVA followed by Dunnett’s, P < 0.05, n=6–16). Repri | column: Analeptic Effect:% Decrease in Sleeping Time || (+ 5 further places)
# [2] = target: TRH receptor (Rattus norvegicus) (UniProt Q01717); assay: radioligand competition
# Sequence of TRH receptor (Rattus norvegicus) (Q01717 whole entry): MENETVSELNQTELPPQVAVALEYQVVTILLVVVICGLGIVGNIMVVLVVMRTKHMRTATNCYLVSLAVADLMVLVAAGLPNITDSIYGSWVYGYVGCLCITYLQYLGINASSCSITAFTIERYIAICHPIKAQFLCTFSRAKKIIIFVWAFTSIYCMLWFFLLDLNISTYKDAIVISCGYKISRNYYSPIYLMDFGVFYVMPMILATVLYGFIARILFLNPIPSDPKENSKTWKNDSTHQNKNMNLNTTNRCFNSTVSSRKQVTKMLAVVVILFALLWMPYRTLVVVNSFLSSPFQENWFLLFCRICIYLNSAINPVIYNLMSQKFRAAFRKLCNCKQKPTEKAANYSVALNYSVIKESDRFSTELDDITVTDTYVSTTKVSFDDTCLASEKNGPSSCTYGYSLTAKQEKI
# [3] = test system: mice; conditions: 3 µmol/kg i.v., percent decrease vs saline vehicle counted as 100%, n=6–16
# From the text: Table 4 Comparison of analeptic (equimolar dose of 10 µmol/kg body weight, i.v.) and antidepressant (equimolar dose of 3 of µmol/kg body weight, i.v) effects of test compounds in mice. Values are expressed as percent decrease compared to those of saline vehicle that was counted as 100%. *Statistically significant difference from saline control (ANOVA followed by Dunnett’s, P < 0.05, n=6–16). Repri | column: Porsolt Swim Test:% Decrease in Immobility
# [4] = IAMC
# From the text: We utilized again the robust ... || (+ 2 further places)
# [5] = test system: TRH receptors; conditions: review statement
# From the text: (§1) Many pharmacological activities of this peptide are similar to those of TRH [54]; however, the beneficial effects after treatment with [Glu^2]TRH are reportedly more robust or prolonged. These advantages are probably due to the increased resistance of this peptide to enzymes principally responsible for the rapid degradation of TRH in vivo [40].
# [6] = test system: triiodothyronine (T3) levels; conditions: review statement
# From the text: as §1
# [7] = mouse plasma
# From the text: (§2) Replacement of [His^2] practically aboli ...
# [8] = test system: receptor labeled by [3H][3-Me-His2]TRH; conditions: [3H][3-Me-His2]TRH-labeled receptor, rat brain pellets
# From the text: as §2
# [9] = remark: listed apart in the source
# Description: Studies in rodents and humans have shown that this tripeptide has a very short (6–10 min) half-life in plasma. The rapid degradation in this medium is mainly due to the action of pyroglutamyl aminopeptidases. Additionally, this highly hydrophilic molecule (logP = –2.46) also lacks its own active BBB transport system; thus, high doses of the peptide unavoidably manifesting a profound and undesired hormonal (endocrine) effect would be required for CNS application. Therefore, dissociation of endocrine and CNS actions of TRH is a crucial issue in designing TRH analogues a ... || A centrally selective natural analogue of TRH is [Leu^2]TRH (pGlu-Leu-Pro-NH2, Figure 1), in which the central His of TRH is replaced with Leu. […] Therefore, we selected this tripeptide for substantiating our brain-targeting prodrug approach. […] The amino- and carbox ...
# [10] = rodents and humans
# Description: Studies in rodents and humans have shown that this tripeptide has a very short (6–10 min) half-life in plasma. The rapid degradation in this medium is mainly due to the action of pyroglutamyl aminopeptidases. Additionally, this highly hydrophilic molecule (logP = –2.46) also lacks its own active BBB transport system; thus, high doses of the peptide unavoidably manifesting a profound and undesired hormonal (endocrine) effect would be required for CNS application. Therefore, dissociation of endocrine and CNS actions of TRH is a crucial issue in designing TRH analogues a ...
# [11] = remark: listed apart in the source
# From the text: A centrally selective natural analogue of TRH is [Leu^2]TRH (pGlu-Leu-Pro-NH2, Figure 1), in which the central His of TRH is replaced with Leu. […] Therefore, we selected this tripeptide for substantiating our brain-targeting prodrug approach. […] The amino- and carbox ...
# [12] = k’IAM = (tR-t0)/t0, t0 = retention time of [Glu^2]TRH as dead-volume marker
# Sequence of TRH (P01150 whole entry, looked up): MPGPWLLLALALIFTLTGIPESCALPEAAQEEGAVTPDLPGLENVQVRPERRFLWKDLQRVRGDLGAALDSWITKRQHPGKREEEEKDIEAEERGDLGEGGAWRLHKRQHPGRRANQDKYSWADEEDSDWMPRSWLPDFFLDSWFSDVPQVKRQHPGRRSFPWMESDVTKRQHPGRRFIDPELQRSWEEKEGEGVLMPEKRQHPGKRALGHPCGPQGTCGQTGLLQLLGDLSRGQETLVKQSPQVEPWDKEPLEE
substance,measurement,setting,value
"Prodrug, S= Ala-Ala: [Leu^2]TRH brain-targeting prodrug: Dht attached through spacer Ala-Ala to Gln-Leu-Pro-Gly, carboxy-terminus esterified with cholesterol (Dht-AAQLPG-{O(cholesteryl)}; reading uncertain)",% Decrease in Sleeping Time,[1]; 15 µmol/kg i.v.,32 ± 4* %
TRH (from UniProt P01150),pKi,[2],7.38
"Prodrug, S= Pro: [Leu^2]TRH brain-targeting prodrug: Dht attached through spacer Pro to Gln-Leu-Pro-Gly, carboxy-terminus esterified with cholesterol (Dht-PQLPG-{O(cholesteryl)}; reading uncertain)",% Decrease in Sleeping Time,[1]; 15 µmol/kg i.v.,47 ± 6** %
Trig-Glu(OHex)-Pro-NH2 [hexyl ester of the designed [Trig^1] analogue of [Glu^2]TRH],Analeptic Effect: % Decrease in Sleeping Time,[1]; n=6–16,1±3%
same,"pharmacological (analeptic) response, in words","[1]; i.v., ionic compound without reduction of Trig to Dht",no pharmacological response was observed
same,Porsolt Swim Test: % Decrease in Immobility,[3],2±1%
"[pGlu]-Glu-Pro-NH2 [[Glu^2]TRH, TRH-like endogenous tripeptide, reference compound]",Sleeping time (min),[1],65±3* min
same,k’IAM,[4]; [12],0
same,"binding to TRH receptors, in words",[5],practically does not bind to TRH receptors
same,"effect on triiodothyronine (T3) levels, in words",[6],does not elevate triiodothyronine (T3) levels
Dht-Glu(OHex)-Pro-NH2,Analeptic Effect: % Decrease in Sleeping Time,[1]; n=6–16,18 ± 2%
same,Analeptic Effect: % Decrease in Sleeping Time,"[1]; n=6–16, listed as Dht-Glu(OHex)–Pro-NH2",18±2* %
same,k’IAM,[4]; [Trig^1] analogue prodrugs,28.6
same,Porsolt Swim Test: % Decrease in Immobility,[3],43±3* %
same,t1/2 of hydrolysis of the ester,mouse,27 min
Dht-Glu(OH)-Pro-NH2 [neutral prodrug without the ester function on the side-chain of the central residue],improvement of affinity to membrane lipids compared to the ionic analogue,[4],three- to five-fold
same,k’IAM,[4]; [Trig^1] analogue prodrugs,0.4
pGlu-Glu(OHex)-Pro-NH2 [R=Hex],Sleeping time (min),[1],50±2** min
same,Analeptic Effect: % Decrease in Sleeping Time,[1]; n=6–16,37±3* %
same,"ED50 (analeptic effect, dose-response)",[1]; i.v.,around 2 µmol/kg body weight
same,k’IAM,[4]; [12],16.0
same,Porsolt Swim Test: % Decrease in Immobility,[3],44±2* %
same,t1/2,mouse,~22 min
pGlu-His-Pro-NH2 [TRH],"duration of the analeptic action, in words","[1]; 15 µmol/kg i.v., pentobarbital 60 mg/kg i.p. given 60 min post drug vs 10 min, Figure 6",loss of over half of CNS-activity
same,k’IAM,"[4]; TRH, pyridinium analogues and their prodrugs",0.51
same,half-life,[7],11 min
same,binding affinity,[8],42 nM
same,logP,"[9]; logarithm of the n-octanol/water partition coefficient, review, no reference given for the value",–2.46
same,half-life in plasma,[10],6 to 10 min
same,half-life,"mouse brain homogenate (20%, w/v)",16 min
"Prodrug, S= Ala: [Leu^2]TRH brain-targeting prodrug: Dht attached through spacer Ala to Gln-Leu-Pro-Gly, carboxy-terminus esterified with cholesterol (Dht-AQLPG-{O(cholesteryl)}; reading uncertain)",% Decrease in Sleeping Time,[1]; 15 µmol/kg i.v.,30 ± 3* %
"Prodrug, S= Pro-Pro: [Leu^2]TRH brain-targeting prodrug: Dht attached through spacer Pro-Pro to Gln-Leu-Pro-Gly, carboxy-terminus esterified with cholesterol (Dht-PPQLPG-{O(cholesteryl)}; reading uncertain)",% Decrease in Sleeping Time,[1]; 15 µmol/kg i.v.,55 ± 7** %
"Prodrug, S= Pro-Ala: [Leu^2]TRH brain-targeting prodrug: Dht attached through spacer Pro-Ala to Gln-Leu-Pro-Gly, carboxy-terminus esterified with cholesterol (Dht-PAQLPG-{O(cholesteryl)}; reading uncertain)",% Decrease in Sleeping Time,[1]; 15 µmol/kg i.v.,56 ± 4** %
"[pGlu]-Leu-Pro-NH2 [[Leu^2]TRH, reference compound]",% Decrease in Sleeping Time,[1]; 15 µmol/kg i.v.,17 ± 7%
same,logP,[9],–1.67
same,increase in typical TRH-associated analeptic effect compared to TRH,[11],approximately 2.5 fold
